Like-named read-outs stand apart in the source and are kept apart here.
How the values were obtained:
cocklebur = assay: Test B pre-/postemergence herbicide test; format: in vivo, Xanthium strumarium; conditions: Xanthium strumarium; for pest or weed control at 125 g/ha: 125 g ai/ha; for pest or weed control at 500 g/ha: 500 g ai/ha
Summary of the method: (§1)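 Pre: seeds sown, then sprayed. Post: 1–4-leaf plants (2–18 cm) sprayed at the same time. Paddy: flooded, treated at 2-leaf stage. Formulation: non-phytotoxic solvent with surfactant. Greenhouse 13–15 days; visual 0–100 score relative to controls.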

wild oat = assay: Test B postemergence herbicide test; format: in vivo, Avena fatua; conditions: Avena fatua, post-emergence, 336 h, postemergence, read-out: Oat, Wild plant response rating
Summary of the method: (§2)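 Read-out: visual comparison with controls, scored 0 to 100, where 100 means complete control and 0 no effect. Formulated chemicals were applied postemergence to plants 2–18 cm tall (1- to 4-leaf), or to flooded-paddy plants at the 2-leaf stage, then held 13 to 15 days under glass.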

ducksalad = assay: Test B flooded paddy test; format: in vivo, Heteranthera limosa; conditions: Heteranthera limosa, 336 h, 1000 g ai/ha, scale 0 to 100 (0 no effect, 100 complete control), read-out: Ducksalad plant response rating
Summary of the method: as §2

blackgrass = assay: Test B postemergence herbicide test; format: in vivo, Alopecurus myosuroides; conditions: Alopecurus myosuroides, post-emergence, 336 h, postemergence, read-out: Blackgrass plant response rating
Summary of the method: as §2

barnyardgrass [1] = assay: Test B flooded paddy test; format: in vivo, Echinochloa crus-galli; conditions: Echinochloa crus-galli, 336 h, 1000 g ai/ha, scale 0 to 100 (0 no effect, 100 complete control), read-out: Barnyardgrass plant response rating
Summary of the method: as §2

large crabgrass = assay: Test B pre-/postemergence herbicide test; format: in vivo, Digitaria sanguinalis; conditions: Digitaria sanguinalis; for pest or weed control at 125 g/ha: 125 g ai/ha; for pest or weed control at 500 g/ha: 500 g ai/ha
Summary of the method: (§3)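 Visual rating, 0 (no effect) to 100 (complete control), versus untreated controls after 13–15 d in greenhouse. Pre- and postemergence applications (postemergence plants 2–18 cm, 1–4 leaves); flooded paddy arm at 2-leaf stage. Compounds in non-phytotoxic solvent plus surfactant.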

[2] = test system: small flower umbrella sedge; assay: Test B flooded paddy test; format: in vivo, Cyperus difformis; conditions: Cyperus difformis, 336 h, 1000 g ai/ha, scale 0 to 100 (0 no effect, 100 complete control), read-out: Sedge, Umbrella plant response rating
Summary of the method: as §2

barnyardgrass [3] = assay: Test B pre-/postemergence herbicide test; format: in vivo, Echinochloa crus-galli; conditions: Echinochloa crus-galli; for pest or weed control at 125 g/ha: 125 g ai/ha; for pest or weed control at 500 g/ha: 500 g ai/ha
Summary of the method: as §1

pigweed = assay: Test B pre-/postemergence herbicide test; format: in vivo, Amaranthus retroflexus; conditions: Amaranthus retroflexus, 336 h; for pest or weed control at 125 g/ha: 125 g ai/ha; for pest or weed control at 500 g/ha: 500 g ai/ha
Summary of the method: as §3

lambsquarters = assay: Test B pre-/postemergence herbicide test; format: in vivo, Chenopodium album; conditions: Chenopodium album, 336 h; for pest or weed control at 125 g/ha: 125 g ai/ha; for pest or weed control at 500 g/ha: 500 g ai/ha
Summary of the method: as §3

morningglory = assay: Test B pre-/postemergence herbicide test; format: in vivo, Ipomoea coccinea; conditions: Ipomoea, 336 h; for pest or weed control at 125 g/ha: 125 g ai/ha; for pest or weed control at 500 g/ha: 500 g ai/ha
Summary of the method: as §1

corn = assay: Test B pre-/postemergence herbicide test; format: in vivo, Zea mays; conditions: Zea mays; for plant injury at 125 g/ha: 125 g ai/ha
Summary of the method: as §3

giant foxtail = assay: Test B pre-/postemergence herbicide test; format: in vivo, Setaria faberi; conditions: Setaria faberi, 336 h; for pest or weed control at 125 g/ha: 125 g ai/ha; for pest or weed control at 500 g/ha: 500 g ai/ha
Summary of the method: as §3

wheat = assay: Test B postemergence herbicide test; format: in vivo, Triticum aestivum; conditions: Triticum aestivum, post-emergence, 336 h, postemergence, read-out: Wheat plant response rating
Summary of the method: as §2

rice = assay: Test B flooded paddy test; format: in vivo, Oryza sativa; conditions: Oryza sativa, 336 h, 1000 g ai/ha, scale 0 to 100 (0 no effect, 100 complete control), read-out: Rice plant response rating
Summary of the method: as §2

Surinam grass = assay: Test B pre-/postemergence herbicide test; format: in vivo, Urochloa decumbens; conditions: Urochloa decumbens; for pest or weed control at 125 g/ha: 125 g ai/ha; for pest or weed control at 500 g/ha: 500 g ai/ha
Summary of the method: as §3

[4] = 125 g ai/ha, visual rating, scale 0 (no effect) to 100 (complete control)
[5] = 500 g ai/ha, scale 0 to 100, 0 is no effect, 100 is complete control

`CCn1nc(C(C)(C)C)c(F)c1C(=O)Nc1cc(C(=O)N(C)C)ccc1F` [Compound 276, N-[5-[(dimethylamino)carbonyl]-2-fluorophenyl]-3-(1,1-dimethylethyl)-1-ethyl-4-fluoro-1H-pyrazole-5-carboxamide] showed a pest or weed control at 125 g/ha (cocklebur; post-emergence, postemergence, visual rating, scale 0 (no effect) to 100 (complete control), read-out: Cocklebur plant response rating) of 10%, a pest or weed control at 500 g/ha (cocklebur; post-emergence, postemergence, scale 0 to 100, 0 is no effect, 100 is complete control, read-out: Cocklebur plant response rating) of 10% and a pest or weed control at 125 g/ha (cocklebur; pre-emergence, 0 = no effect, 100 = complete control, read-out: Cocklebur plant response rating (0 to 100 scale)) of 0%. The pest or weed control at 500 g/ha (cocklebur; pre-emergence, visual rating, 0 = no effect, 100 = complete control, read-out: Plant response rating, Cocklebur) was 30%, the pest or weed control at 125 g/ha (wild oat; [4]) was 30% and the pest or weed control at 500 g/ha (wild oat; [5]) was 40%. It also gave a pest or weed control at 1000 g/ha (ducksalad) of 80%, a pest or weed control at 125 g/ha (blackgrass; [4]) of 30% and a pest or weed control at 500 g/ha (blackgrass; [5]) of 40%. For the same molecule, the pest or weed control at 1000 g/ha (barnyardgrass [1]) was 70%, the pest or weed control at 125 g/ha (large crabgrass; post-emergence, postemergence, visual rating, scale 0 (no effect) to 100 (complete control), read-out: Crabgrass, Large plant response rating) was 10% and the pest or weed control at 500 g/ha (large crabgrass; post-emergence, postemergence, scale 0 to 100, 0 is no effect, 100 is complete control, read-out: Crabgrass, Large plant response rating) was 20%. For the same molecule, the pest or weed control at 125 g/ha (large crabgrass; pre-emergence, 0 = no effect, 100 = complete control, read-out: Crabgrass, Large plant response rating (0 to 100 scale)) was 10%, the pest or weed control at 500 g/ha (large crabgrass; pre-emergence, visual rating, 0 = no effect, 100 = complete control, read-out: Plant response rating, Crabgrass, Large) was 70% and the pest or weed control at 1000 g/ha [2] was 80%. The pest or weed control at 125 g/ha (barnyardgrass [3]; post-emergence, postemergence, visual rating, scale 0 (no effect) to 100 (complete control), read-out: Barnyardgrass plant response rating) was 0%, the pest or weed control at 500 g/ha (barnyardgrass [3]; post-emergence, postemergence, scale 0 to 100, 0 is no effect, 100 is complete control, read-out: Barnyardgrass plant response rating) was 10% and the pest or weed control at 125 g/ha (barnyardgrass [3]; pre-emergence, 0 = no effect, 100 = complete control, read-out: Barnyardgrass plant response rating (0 to 100 scale)) was 60%. It also gave a pest or weed control at 500 g/ha (barnyardgrass [3]; pre-emergence, visual rating, 0 = no effect, 100 = complete control, read-out: Plant response rating, Barnyardgrass) of 80%, a pest or weed control at 125 g/ha (pigweed; post-emergence, postemergence, visual rating, scale 0 (no effect) to 100 (complete control), read-out: Pigweed plant response rating) of 40% and a pest or weed control at 500 g/ha (pigweed; post-emergence, postemergence, scale 0 to 100, 0 is no effect, 100 is complete control, read-out: Pigweed plant response rating) of 70%. For the same molecule, the pest or weed control at 125 g/ha (pigweed; pre-emergence, 0 = no effect, 100 = complete control, read-out: Pigweed plant response rating (0 to 100 scale)) was 30%, the pest or weed control at 500 g/ha (pigweed; pre-emergence, visual rating, 0 = no effect, 100 = complete control, read-out: Plant response rating, Pigweed) was 100% and the pest or weed control at 125 g/ha (lambsquarters; post-emergence, postemergence, visual rating, scale 0 (no effect) to 100 (complete control), read-out: Lambsquarters plant response rating) was 20%. The pest or weed control at 500 g/ha (lambsquarters; post-emergence, postemergence, scale 0 to 100, 0 is no effect, 100 is complete control, read-out: Lambsquarters plant response rating) was 60%, the pest or weed control at 125 g/ha (lambsquarters; pre-emergence, 0 = no effect, 100 = complete control, read-out: Lambsquarters plant response rating (0 to 100 scale)) was 40% and the pest or weed control at 500 g/ha (lambsquarters; pre-emergence, visual rating, 0 = no effect, 100 = complete control, read-out: Plant response rating, Lambsquarters) was 100%. For the same molecule, the pest or weed control at 125 g/ha (morningglory; post-emergence, postemergence, visual rating, scale 0 (no effect) to 100 (complete control), read-out: Morningglory plant response rating) was 10%, the pest or weed control at 500 g/ha (morningglory; post-emergence, postemergence, scale 0 to 100, 0 is no effect, 100 is complete control, read-out: Morningglory plant response rating) was 30% and the pest or weed control at 125 g/ha (morningglory; pre-emergence, 0 = no effect, 100 = complete control, read-out: Morningglory plant response rating (0 to 100 scale)) was 0%. For the same molecule, the pest or weed control at 500 g/ha (morningglory; pre-emergence, visual rating, 0 = no effect, 100 = complete control, read-out: Plant response rating, Morningglory) was 10%, the plant injury at 125 g/ha (corn; post-emergence, postemergence, visual rating, scale 0 (no effect) to 100 (complete control), read-out: Corn plant response rating) was 0% and the plant injury at 500 g/ha (corn; post-emergence, postemergence, 500 g ai/ha, scale 0 to 100, 0 is no effect, 100 is complete control, read-out: Corn plant response rating) was 20%. The plant injury at 125 g/ha (corn; pre-emergence, 0 = no effect, 100 = complete control, read-out: Corn plant response rating (0 to 100 scale)) was 20%, the Corn plant response rating (crop injury, 0 = no effect, 100 = complete kill) at 500 g/ha (corn; pre-emergence, 500 g ai/ha, visual rating, 0 = no effect, 100 = complete control) was 60% and the pest or weed control at 125 g/ha (giant foxtail; post-emergence, postemergence, visual rating, scale 0 (no effect) to 100 (complete control), read-out: Foxtail, Giant plant response rating) was 10%. For the same molecule, the pest or weed control at 500 g/ha (giant foxtail; post-emergence, postemergence, scale 0 to 100, 0 is no effect, 100 is complete control, read-out: Foxtail, Giant plant response rating) was 40%, the pest or weed control at 125 g/ha (giant foxtail; pre-emergence, 0 = no effect, 100 = complete control, read-out: Foxtail, Giant plant response rating (0 to 100 scale)) was 30% and the pest or weed control at 500 g/ha (giant foxtail; pre-emergence, visual rating, 0 = no effect, 100 = complete control, read-out: Plant response rating, Foxtail, Giant) was 90%. The plant injury at 125 g/ha (wheat; [4]) was 20%, the plant injury at 500 g/ha (wheat; [5]) was 30% and the plant injury at 1000 g/ha (rice) was 70%. For the same molecule, the pest or weed control at 125 g/ha (Surinam grass; post-emergence, postemergence, visual rating, scale 0 (no effect) to 100 (complete control), read-out: Surinam Grass plant response rating) was 10%, the pest or weed control at 500 g/ha (Surinam grass; post-emergence, postemergence, scale 0 to 100, 0 is no effect, 100 is complete control, read-out: Surinam Grass plant response rating) was 20% and the pest or weed control at 125 g/ha (Surinam grass; pre-emergence, 0 = no effect, 100 = complete control, read-out: Surinam Grass plant response rating (0 to 100 scale)) was 10%. For the same molecule, the pest or weed control at 500 g/ha (Surinam grass; pre-emergence, visual rating, 0 = no effect, 100 = complete control, read-out: Plant response rating, Surinam Grass) was 60%.
